Test systems include K562; NCI/ADR-RES; T47D; EKVX; 786-0; MOLT-4; NCI-H23; KM12; SNB-19; SF-295; OVCAR-3; NCI-H460; A549; MDA-MB-231; SK-OV-3; MDA-MB-435; UO-31; NCI-H226; MCF7; SW-620.
Holding throughout (assay): NCI anticancer screen, dose series, 48 h

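Five concentrations, 48 hours, 96-well plates. At the GI50, growth is halved.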 Active and inactive are the calls of the source. Cut-off read from the data, not from the text of the source: active = GI50 up to about 1.1 µM and inactive = higher. Bounds are passed on as bounds.

Turning to `COc1ccc(CN(CCc2c[nH]c3ccccc23)Cc2ccc(OC)cc2)cc1`, the GI50 in the test on K562 was 4.75 µM (inactive); in the test on NCI/ADR-RES it was 3.2 µM (inactive); with T47D it was 1.33 µM (inactive); in the test with EKVX, 5.26 µM (inactive); in the test on 786-0, 3.08 µM (inactive); in the test on MOLT-4, > 21 µM (inactive). The GI50 with NCI-H23 was 2.31 µM (inactive); with KM12, 2.67 µM (inactive); in the test with SNB-19, 5.13 µM (inactive); in the test on SF-295, 1.15 µM (inactive); with OVCAR-3, 3.23 µM (inactive); in the test with NCI-H460, 2.15 µM (inactive). The GI50 was 3.63 µM (inactive) in the test on A549; 8.65 µM (inactive) with MDA-MB-231; 5.46 µM (inactive) in the test with SK-OV-3; 2.76 µM (inactive) in the test on MDA-MB-435; 1.47 µM (inactive) in the test with UO-31; 1.37 µM (inactive) in the test on NCI-H226. Besides, the GI50 in the test on MCF7 was 3.47 µM (inactive); in the test with SW-620 it was 4.19 µM (inactive).

On to `CC(C)(C)OC(=O)NC(Cc1ccccc1)OCc1ccccc1` (stereo not given), for which the GI50 in the test with K562 was 20.6 µM (inactive); with NCI/ADR-RES it was 26.7 µM (inactive); in the test with T47D it was 14.6 µM (inactive); in the test with EKVX it was 17.4 µM (inactive); in the test on 786-0, 17.2 µM (inactive); with MOLT-4, 17.4 µM (inactive). Besides, the GI50 in the test with NCI-H23 is 16 µM (inactive); with KM12, 19.5 µM (inactive); with SNB-19, 19.5 µM (inactive); with SF-295, 16.6 µM (inactive); in the test with OVCAR-3 it was 23.2 µM (inactive); with NCI-H460, 21.3 µM (inactive). Further, the GI50 is 17.6 µM (inactive) in the test with A549; 15.3 µM (inactive) with MDA-MB-231; 17.6 µM (inactive) in the test on SK-OV-3; 19.4 µM (inactive) with MDA-MB-435; 17.1 µM (inactive) in the test with UO-31; 18.7 µM (inactive) in the test with NCI-H226. Also, the GI50 is 19.7 µM (inactive) with MCF7 and 17.2 µM (inactive) with SW-620.

Take `CCCCCC(=O)OC[n+]1ccc(-c2c(COC(=O)NC(C)C)c(COC(=O)NC(C)C)c3n2CCC3)cc1`: the GI50 with K562 is > 100 µM (inactive); in the test on NCI/ADR-RES, > 100 µM (inactive); in the test on T47D, > 100 µM (inactive); in the test on EKVX, > 100 µM (inactive); with 786-0, > 92 µM (inactive); with MOLT-4 it was 35.9 µM (inactive). Besides, the GI50 in the test with NCI-H23 was > 100 µM (inactive); with KM12 it was > 100 µM (inactive); with SNB-19, > 100 µM (inactive); with SF-295, > 100 µM (inactive); in the test on OVCAR-3, > 100 µM (inactive); with NCI-H460, 72.3 µM (inactive). Further, the GI50 in the test on A549, in the test with MDA-MB-231, with SK-OV-3, in the test on MDA-MB-435, with UO-31 and in the test on NCI-H226 was > 100 µM (inactive) each time. Further, the results for the GI50 in the test on MCF7 and in the test on SW-620 were 77.1 µM (inactive) and > 100 µM (inactive), respectively.

Turning to `Cc1ccc(S(=O)(=O)N2CCC(=O)c3cc(Br)ccc32)cc1`, the GI50 in the test with K562 was 4.57 µM (inactive); with NCI/ADR-RES, 6.56 µM (inactive); in the test on T47D, 23.1 µM (inactive); in the test with EKVX, 23.9 µM (inactive); in the test on 786-0, 10.1 µM (inactive); with MOLT-4 it was 4.51 µM (inactive). In addition, the GI50 is 19.2 µM (inactive) with NCI-H23; 3.24 µM (inactive) in the test on KM12; 18.4 µM (inactive) in the test on SNB-19; 10.1 µM (inactive) with SF-295; 9.93 µM (inactive) with OVCAR-3; 19.3 µM (inactive) with NCI-H460. Besides, the GI50 in the test with A549 is 13.6 µM (inactive); in the test with MDA-MB-231, 6.44 µM (inactive); in the test with SK-OV-3 it was 20.5 µM (inactive); in the test on MDA-MB-435, 1.79 µM (inactive); with UO-31, 10.9 µM (inactive); with NCI-H226 it was 37.7 µM (inactive). Moreover, the GI50 is 4.45 µM (inactive) in the test with MCF7 and 6.04 µM (inactive) in the test on SW-620.

As to `COCc1cc2c(s1)C(=O)C1=C(C2=O)C2(C=C(Br)C(=O)C(Br)=C2)CCN1`, the GI50 was 2.11 µM (inactive) with K562; 3.52 µM (inactive) in the test with NCI/ADR-RES; 3.06 µM (inactive) in the test with T47D; 11.7 µM (inactive) in the test with EKVX; 4.88 µM (inactive) in the test on 786-0; 2.43 µM (inactive) in the test with MOLT-4. In addition, the GI50 with NCI-H23 is 2.38 µM (inactive); in the test with KM12 it was 4.85 µM (inactive); with SNB-19 it was 18.3 µM (inactive); with SF-295, 6.05 µM (inactive); in the test with OVCAR-3 it was 0.809 µM (active); in the test with NCI-H460, 3.58 µM (inactive). Moreover, the GI50 with A549 is 6.53 µM (inactive); in the test on MDA-MB-231, 3.04 µM (inactive); in the test with SK-OV-3 it was 17 µM (inactive); with MDA-MB-435, 1.58 µM (inactive); in the test with UO-31, 12.8 µM (inactive); in the test with NCI-H226, 12.7 µM (inactive). Also, the figures for the GI50 with MCF7 and in the test on SW-620 were 10.6 µM (inactive) and 3.21 µM (inactive), respectively.

`CC(C)(C)[Si](C)(C)OCC1OC(n2cnc3c(=O)[nH]cnc32)CC1O` (stereo not given): the GI50 in the test on K562, in the test on NCI/ADR-RES, with T47D, with EKVX, with 786-0 and with MOLT-4 was > 100 µM (inactive) each time. Further, the GI50 in the test on NCI-H23, in the test on KM12, in the test on SNB-19, in the test with SF-295, in the test on OVCAR-3 and with NCI-H460 was > 100 µM (inactive) in each case. For the same compound, the GI50 in the test on A549, in the test on MDA-MB-231, in the test on SK-OV-3, in the test on MDA-MB-435, in the test on UO-31 and with NCI-H226 was > 100 µM (inactive) each time. Moreover, the GI50 with MCF7 and in the test with SW-620 was > 100 µM (inactive) in each case.

Consider `Nc1c(-c2cccc3ccccc23)c2ccc([N+](=O)[O-])cc2c(=O)n1-c1nc2ccccc2s1`, for which the GI50 in the test with K562 is 6.93 µM (inactive); in the test with NCI/ADR-RES it was 2.26 µM (inactive); in the test with T47D it was 3.37 µM (inactive); in the test on EKVX, 1.94 µM (inactive); in the test with 786-0, 5.64 µM (inactive); in the test on MOLT-4, 3.03 µM (inactive). Moreover, the GI50 is 2.11 µM (inactive) with NCI-H23; 3.84 µM (inactive) in the test on KM12; 8.07 µM (inactive) with SNB-19; 5.53 µM (inactive) in the test on SF-295; 3.94 µM (inactive) in the test with OVCAR-3; 3.1 µM (inactive) in the test with NCI-H460. Also, the GI50 with A549 is 3.32 µM (inactive); with MDA-MB-231, 5.37 µM (inactive); in the test on SK-OV-3, 2.75 µM (inactive); with MDA-MB-435, 9.38 µM (inactive); in the test with UO-31, 4.1 µM (inactive); in the test with NCI-H226, 2.41 µM (inactive). For the same compound, the GI50 with MCF7 was 1.5 µM (inactive); in the test on SW-620 it was 11.2 µM (inactive).

Take `CCN(CC)CCNc1ccc2ncn3c4ccc(O)cc4c(=O)c1c23`: the GI50 was 1.04 µM (active) with K562; 2.81 µM (inactive) with NCI/ADR-RES; 12.2 µM (inactive) in the test with T47D; 7.28 µM (inactive) in the test with EKVX; 0.459 µM (active) in the test with 786-0; 0.0146 µM (active) with MOLT-4. The GI50 with NCI-H23 was 0.194 µM (active); in the test on KM12, 1.21 µM (inactive); with SNB-19, 1.01 µM (active); with SF-295, 0.216 µM (active); with OVCAR-3 it was 3.55 µM (inactive); in the test with NCI-H460, 0.0291 µM (active). Besides, the GI50 in the test on A549 was 0.0248 µM (active); in the test with MDA-MB-231, 1.65 µM (inactive); with SK-OV-3, 0.785 µM (active); with MDA-MB-435, 3.67 µM (inactive); with UO-31 it was 0.429 µM (active); in the test on NCI-H226, 0.04 µM (active). Moreover, the values for the GI50 in the test with MCF7 and with SW-620 were 0.15 µM (active) and 0.216 µM (active), respectively.

As for `COC(=O)C(CCC1CC(OC)N(C(=O)OCc2ccccc2)C1)/N=C/c1ccccc1` (stereo not given), the GI50 was 45.2 µM (inactive) in the test on K562; > 100 µM (inactive) in the test on NCI/ADR-RES; 40.5 µM (inactive) in the test with T47D; 55.2 µM (inactive) with EKVX; > 100 µM (inactive) in the test on 786-0; 30.1 µM (inactive) in the test with MOLT-4. In addition, the GI50 with NCI-H23 was 76 µM (inactive); with KM12, 94.8 µM (inactive); in the test with SNB-19, > 100 µM (inactive); in the test with SF-295, > 100 µM (inactive); in the test on OVCAR-3, 36.1 µM (inactive); with NCI-H460, 78.3 µM (inactive). Besides, the GI50 is 83 µM (inactive) in the test on A549; 47 µM (inactive) with MDA-MB-231; > 100 µM (inactive) in the test with SK-OV-3; 53.8 µM (inactive) in the test with MDA-MB-435; 91.6 µM (inactive) in the test with UO-31; > 100 µM (inactive) in the test on NCI-H226. Also, the GI50 with MCF7 is 60 µM (inactive); with SW-620 it was > 100 µM (inactive).

On to `COc1ccc2nc3c([N+](=O)[O-])ccc4c3c(c2c1)N(CCCN(C)C)C(=S)N4CCCN(C)C`, for which the GI50 in the test with K562 was 1.77 µM (inactive); in the test on NCI/ADR-RES it was 6.62 µM (inactive); in the test with T47D it was 20.5 µM (inactive); in the test on EKVX it was 3.74 µM (inactive); in the test on 786-0 it was 2.78 µM (inactive); in the test with MOLT-4, 3.5 µM (inactive). Moreover, the GI50 with NCI-H23 is 8.97 µM (inactive); in the test on KM12 it was 2.5 µM (inactive); in the test on SNB-19 it was 9.71 µM (inactive); in the test with SF-295, 4.6 µM (inactive); in the test on OVCAR-3 it was 6.04 µM (inactive); in the test with NCI-H460 it was 2.7 µM (inactive). The GI50 in the test with A549 is 5.45 µM (inactive); in the test on MDA-MB-231 it was 7.28 µM (inactive); with SK-OV-3 it was 12.6 µM (inactive); in the test with MDA-MB-435, 5.74 µM (inactive); in the test with UO-31, 7.85 µM (inactive); in the test on NCI-H226, 7.48 µM (inactive). The GI50 with MCF7 is 5.07 µM (inactive); with SW-620, 2.62 µM (inactive).

The values are drawn from ChEMBL document CHEMBL1201862, “PubChem BioAssay data set” (2004).
